Laboratory results published in patent US8741350B2, “Taste masked pharmaceutical composition” (Boehringer Ingelheim Vetmedica GmbH, priority 2011, dated 2014).
Read-outs that look alike come from different tables or passages of the source.

Assays:
[1] = background statement; cited from earlier work
[2] = Lipophilicity profile (statement); format: physicochemical; settings: neutral versus acidic pH
[3] = Water solubility (statement); format: physicochemical

Row | SMILES | water solubility in words [1] | lipophilicity profile in words [2] | water solubility in words [3]
1 | COc1ccc(CCN2CCC[C@H](CN3CCc4cc(OC)c(OC)cc4CC3=O)C2)cc1OC [Cilobradine] | highly water-soluble | – | –
2 | COc1ccc(CCN2CCC[C@H](CN3CCc4cc(OC)c(OC)cc4CC3=O)C2)cc1OC.Cl [cilobradine hydrochloride] | highly water-soluble | slightly more lipophilic at neutral pH values | –
3 | CC#CCn1c(N2CCC[C@@H](N)C2)nc2c1c(=O)n(Cc1ncccc1C#N)c(=O)n2C.Cl [1-[(3-cyano-pyridin-2-yl)methyl]-3-methyl-7-(2-butyn-1-yl)-8-[3-(R)-amino-piperidin-1-yl]-xanthine monohydrochloride] | – | – | water soluble
